Test results from US6503525B1, “Absorbent article which maintains or improves skin health” (Kimberly-Clark Worldwide, Inc., priority 1999, dated 2003).

Columns and labels:
[1] = tested on: proteolytic activity of fecal extract; conditions: 0-1 mM emulsions, pH 8.0, room temperature
Procedure: The supernatant was filtered through 0.22 micron cellulose acetate filters and stored at −80° C. until use.

[2] = tested on: EpiDerm™ 201 synthetic skin (keratinocytes), interleukin-1 alpha release
From the text: The synthetic skin, EpiDerm™ 201 (MatTek Corporation, Ashland, Mass.) contains keratinocytes that release interleukin-1 alpha (IL-1 alpha) when subjected to proteases in the fecal extract. When the IL-1 alpha was released, it diffused from the skin into the fluid below the EpiDerm™. Samples of this fluid were taken and analyzed for the presence of the IL-1 alpha. Higher levels of IL-1 alpha was indicative of greater skin irritation.
Prior to application onto the EpiDerm™, the fecal extract (10.4 μL) was pre-incubated for 30 minutes at room temperature with 250 mM zinc sulfate heptahydrate in water (2.6 μL). Water only and fecal extract only samples served as controls. After application of the samples to the EpiDerm™, 25 μL aliquots were removed from the underlying media at 8, 12, and 24 hours to test for the presence of the IL-1 alpha. The aliquots were directly added to a 1.5 mL micro-centrifuge tube containing 225 μL of filtered-sterilized 20 mM Tris-HCl, pH 8.0, 1% BSA buffer and stored at −80° C. After all samples were collected, IL-1 alpha levels were quantified using the R&D Systems Interleukin-1 alpha Quantikine Kit (R&D Systems, Minneapolis, Minn.).

[3] = tested on: proteolytic activity of infant urine; conditions: 0-50 mM, pH 8.0, 37° C.
Procedure: The proteolytic activity of infant urine was measured using fluorescently-labeled casein.
Two (2) infant urine (100 μL) samples were added to wells of a 96 white plate (Dynex) containing 80 μL of 12.5 μg/ml solution of a fluorescent dye-labeled casein substrate (EnzChek Protease Assay Kit (E-6639)) in 100 mM Tris-HCl, pH 8.0, and allowed to incubate for 60 minutes at 37° C. […] Reaction of the infant urine with the casein substrate cleaves the fluorescent dye from the substrate. RFUs were collected using the Fluoroskan Ascent System with excitation and emission filters of 485 and 538 nm, respectively. Data were collected each minute for 60 minutes at 37° C. and rates (RFU/min) from 30-50 minutes were calculated for each zinc concentration. Using the uninhibited wells as 100% protease activity, percent of urine proteolytic activity remaining was determined for each concentration of zinc inhibitor (Inhibited Rate/Uninhibited rate* 100).

[4] = tested on: proteolytic activity in the fecal extract; assay: Fecal extract protease assay with labeled casein (silk proteins); type: biochemical, infant; conditions: serial dilutions in 100 mM Tris-HCl pH 8.0, room temperature
Procedure: Water soluble silk protein (SERICIN, Pentapharm AG, Basel, Switzerland) and hydrolyzed silk (CROSILK 10,000, Croda, Incorporated, Parsippany, N.J.) were individually shown to inhibit proteolytic activity in the fecal extract that has been implicated to contribute to diaper rash. Serial dilutions of the neat protein and hydrolysate were performed with 100 mM Tris-HCl pH 8.0 as the diluent. The silk protein concentrations were determined using a Macro BCA Protein Assay Reagent Kit (Pierce, Rockford, Ill.).
Fecal extract was prepared as described above for the examples of silk protein and zinc compositions. […] The reaction was initiated with the addition of 100 μL of the 2 μg/ml fecal extract. […] The reaction was run for 30 min. at room temperature and rates (RFU/min) from 10-20 minutes were calculated.

| Compound | inhibition of casein hydrolysis by fecal extract (FIG. 9) [1] | inhibition of fecal extract activity on EpiDerm, concentration series (FIG. 12) ([2]; 0, 25, 50, 125 and 250 mM in 2.6 μL aliquot added to 10.4 μL fecal extract) | interleukin-1 alpha released into underlying media (FIG. 11) ([2]; 250 mM pre-incubated 30 min with fecal extract, relative to FE+water, 8, 12 and 24 hours) | inhibition of casein hydrolysis by infant urine (FIG. 10) [3] | fecal proteolytic activity (FIG. 13) [4] |
| --- | --- | --- | --- | --- | --- |
| O.O.O.O.O.O.O.O=S(=O)([O-])[O-].[Zn+2] [zinc sulfate heptahydrate] | effectively inhibited the hydrolysis of casein by the fecal extract in a dose-dependent manner | effectively inhibits the proteolytic activity of fecal extract in a dose-dependent manner | reduced the amount of interleukin-1 alpha released into the underlying media | effectively inhibited the hydrolysis of casein by infant urine in a dose-dependent manner |  |
| SERICIN |  |  |  |  | reduction of proteolytic activity with increasing concentrations |
